According to publication doi:10.1101/211839v1 (biorxiv, 2017):

Assays:
HDAC11 (untagged) [1] = molecular target: T1, HDAC11 (untagged) (Homo sapiens, UniProt Q96DB2); experiment: end-point fluorescence demyristoylase assay, trypsin release of AMC; type: biochemical
T1 sequence (Q96DB2 1-347): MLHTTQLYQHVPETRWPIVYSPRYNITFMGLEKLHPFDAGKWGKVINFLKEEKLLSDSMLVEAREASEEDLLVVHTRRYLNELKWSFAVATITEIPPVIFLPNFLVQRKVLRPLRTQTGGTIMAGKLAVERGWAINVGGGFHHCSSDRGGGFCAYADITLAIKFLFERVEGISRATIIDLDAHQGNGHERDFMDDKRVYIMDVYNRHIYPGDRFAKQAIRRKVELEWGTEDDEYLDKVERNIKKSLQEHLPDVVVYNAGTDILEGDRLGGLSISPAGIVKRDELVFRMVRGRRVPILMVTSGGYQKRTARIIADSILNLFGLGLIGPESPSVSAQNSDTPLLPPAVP

HDAC11 (untagged) [2] = molecular target: T1, HDAC11 (untagged); experiment: continuous fluorescence assay, trypsin-coupled, initial rates; type: biochemical; details: […] enzyme, HEPES pH […], no BSA, […] °C

Compound | IC50 (HDAC11 (untagged) [1]) [µM] | Km (HDAC11 (untagged) [2]) [µM]
C/C=C1\NC(=O)[C@H]2CSSCC/C=C/[C@H](CC(=O)N[C@H](C(C)C)C(=O)N2)OC(=O)[C@H](C(C)C)NC1=O [romidepsin] | > 100 | –
Ac-ETDKmyr-AMC [6e] | – | 60
